Source: ChEMBL document CHEMBL1649512, “Reduced susceptibility to cefepime among Escherichia coli clinical isolates producing novel variants of CMY-2 beta-lactamase” (2009)
Values after ≈ are worked out from the molar mass of the structure shown.

Key:
Type in all cases: functional
Escherichia coli [1] = test: Antibacterial activity against Escherichia coli 1285 harboring beta-lactamase CMY-33 gene by Etest method
Escherichia coli [2] = test: Antibacterial activity against Escherichia coli YD006 harboring beta-lactamase CMY-33 gene by Etest method
Escherichia coli [3] = test: Antibacterial activity against Escherichia coli 34943 harboring beta-lactamase CMY-44 gene by Etest method
Escherichia coli [4] = test: Antibacterial activity against Escherichia coli DH10B harboring plasmid BCSK carrying beta-lactamase CMY-33 gene by Etest method; conditions: K-12 DH10B
Escherichia coli [5] = test: Antibacterial activity against Escherichia coli DH10B harboring plasmid BCSK carrying beta-lactamase CMY-44 gene by Etest method; conditions: K-12 DH10B
Escherichia coli [6] = test: Antibacterial activity against Escherichia coli DH10B harboring plasmid BCSK carrying beta-lactamase CMY-2 gene by Etest method; conditions: K-12 DH10B
Escherichia coli [7] = test: Antibacterial activity against Escherichia coli DH10B harboring plasmid BCSK by Etest method; conditions: K-12 DH10B

| SMILES | MIC (Escherichia coli [1]) [µg/mL] | MIC (Escherichia coli [2]) [µg/mL] | MIC (Escherichia coli [3]) [µg/mL] | MIC (Escherichia coli [4]) [µg/mL] | MIC (Escherichia coli [5]) [µg/mL] | MIC (Escherichia coli [6]) [µg/mL] | MIC (Escherichia coli [7]) [µg/mL] |
| --- | --- | --- | --- | --- | --- | --- | --- |
| CO/N=C(\C(=O)N[C@@H]1C(=O)N2C(C(=O)O)=C(COC(C)=O)CS[C@H]12)c1csc(N)n1 [CEFOTAXIME] | > 256 | 8 (≈ 17.6 µM) | 32 (≈ 70.3 µM) | 12 (≈ 26.3 µM) | 8 (≈ 17.6 µM) | 16 (≈ 35.1 µM) | 0.064 (≈ 0.141 µM) |
| CC1(C)S[C@@H]2[C@H](NC(=O)[C@H](N)c3ccccc3)C(=O)N2[C@H]1C(=O)O [AMPICILLIN] | > 256 | 128 (≈ 366 µM) | > 256 | > 256 | > 256 | > 256 | 3 (≈ 8.59 µM) |
| C[C@H]1[C@H](NC(=O)/C(=N\OC(C)(C)C(=O)O)c2csc(N)n2)C(=O)N1S(=O)(=O)O [AZTREONAM] | 64 (≈ 147 µM) | 6 (≈ 13.8 µM) | 24 (≈ 55.1 µM) | 16 (≈ 36.7 µM) | 4 (≈ 9.19 µM) | 8 (≈ 18.4 µM) | – |
| CO[C@@]1(NC(=O)Cc2cccs2)C(=O)N2C(C(=O)O)=C(COC(N)=O)CS[C@@H]21 [CEFOXITIN] | > 256 | 24 (≈ 56.1 µM) | > 256 | 24 (≈ 56.1 µM) | 32 (≈ 74.9 µM) | > 256 | 6 (≈ 14 µM) |
| CC(C)(O/N=C(\C(=O)N[C@@H]1C(=O)N2C(C(=O)[O-])=C(C[n+]3ccccc3)CS[C@H]12)c1csc(N)n1)C(=O)O [CEFTAZIDIME] | > 256 | > 256 | > 256 | > 256 | > 256 | > 256 | 0.5 (≈ 0.915 µM) |
| CO/N=C(\C(=O)N[C@@H]1C(=O)N2C(C(=O)O)=C(COC(N)=O)CS[C@H]12)c1ccco1 [CEFUROXIME] | > 256 | 96 (≈ 226 µM) | > 256 | 128 (≈ 302 µM) | 64 (≈ 151 µM) | > 256 | 6 (≈ 14.1 µM) |
| CCN1CCN(C(=O)N[C@@H](C(=O)N[C@@H]2C(=O)N3[C@@H]2SC(C)(C)[C@@H]3C(=O)O)c2ccccc2)C(=O)C1=O [PIPERACILLIN] | > 256 | 12 (≈ 23.2 µM) | > 256 | 64 (≈ 124 µM) | 32 (≈ 61.8 µM) | 128 (≈ 247 µM) | 2 (≈ 3.86 µM) |
| CO/N=C(\C(=O)N[C@@H]1C(=O)N2C(C(=O)[O-])=C(C[N+]3(C)CCCC3)CS[C@H]12)c1csc(N)n1 [CEFEPIME] | 96 (≈ 200 µM) | 6 (≈ 12.5 µM) | 32 (≈ 66.6 µM) | 6 (≈ 12.5 µM) | 3 (≈ 6.24 µM) | 0.25 (≈ 0.52 µM) | 0.032 (≈ 0.0666 µM) |
| C[C@@H](O)[C@H]1C(=O)N2C(C(=O)O)=C(S[C@@H]3CN[C@H](C(=O)Nc4cccc(C(=O)O)c4)C3)[C@H](C)[C@H]12 [ERTAPENEM] | 1 (≈ 2.1 µM) | 0.064 (≈ 0.135 µM) | 4 (≈ 8.41 µM) | 0.032 (≈ 0.0673 µM) | 0.064 (≈ 0.135 µM) | 0.094 (≈ 0.198 µM) | 0.012 (≈ 0.0252 µM) |
